Experiments:
Format in all cases: in vivo
[1] = tested on: Heliothis virescens; experiment: Tobacco budworm (Heliothis virescens) control, 96-well microtiter plate insect diet test with eggs; details: 120 h, egg and larval mortality visually assessed after 5 days at about 28 ± 1°C, read-out: mortality in comparison with untreated controls
Method: For evaluating control of tobacco budworm (Heliothis virescens) the test unit consisted of 96-well-microtiter plates containing an insect diet and 15-25 H. virescens eggs.
The compounds were formulated using a solution containing 75% v/v water and 25% v/v DMSO. Different concentrations of formulated compounds were sprayed onto the insect diet at 10 µl, using a custom-built micro atomizer, at two replications.
After application, microtiter plates were incubated at about 28 ± 1°C and about 80 ± 5 % relative humidity for 5 days. Egg and larval mortality was then visually assessed.

[2] = tested on: Anthonomus grandis; experiment: Boll weevil (Anthonomus grandis) control, 96-well microtiter plate insect diet test with eggs; details: 120 h, egg and larval mortality visually assessed after 5 days at about 25 ± 1°C, read-out: mortality in comparison with untreated controls
Method: For evaluating control of boll weevil (Anthonomus grandis) the test unit consisted of 96-well-microtiter plates containing an insect diet and 5-10 A. grandis eggs.
The compounds were formulated using a solution containing 75% v/v water and 25% v/v DMSO. Different concentrations of formulated compounds were sprayed onto the insect diet at 5µl, using a custom-built micro atomizer, at two replications.
After application, microtiter plates were incubated at about 25 ± 1°C and about 75 ± 5 % relative humidity for 5 days. Egg and larval mortality was then visually assessed.

[3] = tested on: Spodoptera eridania; experiment: Southern armyworm (Spodoptera eridania), 2nd instar larvae, foliar spray on lima bean plants; details: 96 h, 2nd instar larvae on sprayed lima bean plants, assessed 4 days after treatment, read-out: mortality in comparison with untreated controls
Method: The active compounds were formulated by a Tecan liquid handler in 100% cyclohexanone as a 10,000 ppm solution supplied in tubes. The 10,000 ppm solution was serially diluted in 100% cyclohexanone to make interim solutions. These served as stock solutions for which final dilutions were made by the Tecan in 50% acetone:50% water (v/v) into 10 or 20ml glass vials. A nonionic surfactant (Kinetic®) was included in the solution at a volume of 0.01% (v/v). The vials were then inserted into an automated electrostatic sprayer equipped with an atomizing nozzle for application to plants/insects. Lima bean plants (variety Sieva) were grown 2 plants to a pot and selected for treatment at the 1st true leaf stage. Test solutions were sprayed onto the foliage by an auto-mated electrostatic plant sprayer equipped with an atomizing spray nozzle. The plants were dried in the sprayer fume hood and then removed from the sprayer. Each pot was placed into perforated plastic bags with a zip closure. Ten to 11 armyworm larvae were placed into the bag and the bags zipped closed. Test plants were maintained in a growth room at about 25°C and about 20-40% relative humidity for 4 days, avoiding direct exposure to fluorescent light (14:10 light:dark photoperiod) to prevent trapping of heat inside the bags. Mortality and reduced feeding were assessed 4 days after treatment, compared to untreated control plants.

[4] = tested on: Dichromothrips corbetti; experiment: Orchid thrips (Dichromothrips corbetti) floral-immersion test; details: adult thrips on dipped orchid petals, recorded 72 hours after treatment, read-out: mortality in comparison with untreated controls
Method: Dichromothrips corbetti adults used for bioassay were obtained from a colony maintained continuously under laboratory conditions. For testing purposes, the test compound is diluted in a 1:1 mixture of acetone:water (vol:vol), plus Kinetic HV at a rate of 0.01% v/v.
Thrips potency of each compound was evaluated by using a floral-immersion technique. All petals of individual, intact orchid flowers were dipped into treatment solution and allowed to dry in Petri dishes. Treated petals were placed into individual re-sealable plastic along with about 20 adult thrips. All test arenas were held under continuous light and a temperature of about 28°C for duration of the assay. After 3 days, the numbers of live thrips were counted on each petal. The percent mortality was recorded 72 hours after treatment.

[5] = tested on: Aedes aegypti; experiment: whole plant or invertebrate; details: 48 h, larval mortality visually assessed after 2 days at 28±1°C, read-out: mortality in comparison with untreated controls
Method: For evaluating control of yellow fever mosquito (Aedes aegypti) the test unit consisted of 96-well-microtiter plates containing 200µl of tap water per well and 5-15 freshly hatched A. aegypti larvae.
The active compounds were formulated using a solution containing 75% (v/v) water and 25% (v/v) DMSO. Different concentrations of formulated compounds or mixtures were sprayed onto the insect diet at 2.5µl, using a custom-built micro atomizer, at two replications.
After application, microtiter plates were incubated at 28±1°C, 80±5 % RH for 2 days. Larval mortality was then visually assessed.

CC(NC(=O)c1cc(Cl)cc(C(F)(F)F)c1)c1ncccc1-n1nccn1 (stereo not drawn) [Compound I-1]
≥ 75%: mortality at 2500 ppm [1] | mortality at 2500 ppm [2] | mortality at 300 ppm [3] | mortality at 300 ppm [4] | mortality at 2500 ppm [5]

CC(NC(=O)c1cc(Cl)cc(C(F)(F)F)c1)c1ncccc1-n1cc(C#N)cn1 (stereo not drawn) [Compound I-2]
≥ 75%: mortality at 2500 ppm [2] | mortality at 300 ppm [3] | mortality at 2500 ppm [5]

CC(NC(=O)c1cc(Cl)cc(C(F)(F)F)c1)c1nc(Cl)ccc1-n1nccn1 (stereo not drawn) [Compound I-3, 3-chloro-N-[1-[6-chloro-3-(triazol-2-yl)-2-pyridyl]ethyl]-5-(trifluoromethyl)benzamide]
≥ 75%: mortality at 2500 ppm [1] | mortality at 2500 ppm [2] | mortality at 300 ppm [3] | mortality at 2500 ppm [5]
